Drawing on patent publication US20240025919A1, “AZA-TETRACYCLIC OXAZEPINE COMPOUNDS AND USES THEREOF” (Genentech, Inc., priority 2022, published 2024), this text covers IC50 for 17 compounds.

Assay [1] deals with T1, KRAS WT (Homo sapiens (Human), UniProt P01116). As to the kind of experiment: KRAS WT Biochemical Assay, BODIPY-GDP Exchange TR-FRET (Example 501; 3 nM KRAS WT, 3 nM SOS1, 60-minute incubation). In a few lines: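 SOS1-mediated exchange assay: 3 nM biotin-KRAS WT with terbium-streptavidin, started with 3 nM SOS1 and 300 nM BODIPY-GDP, HEPES pH 7.5 with MgCl2. TR-FRET (520/490 nm) read after 60 min; normalized to DMSO and full-inhibition control, IC50 from 4-parameter Hill fit.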
T1 sequence (P01116-2 other isoform, or with tags, fused parts or gaps): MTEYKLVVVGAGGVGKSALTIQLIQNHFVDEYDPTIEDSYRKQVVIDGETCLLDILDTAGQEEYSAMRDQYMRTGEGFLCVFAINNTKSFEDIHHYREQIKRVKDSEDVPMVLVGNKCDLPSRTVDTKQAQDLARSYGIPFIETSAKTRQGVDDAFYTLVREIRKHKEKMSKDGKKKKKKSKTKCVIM

Assay [2] relates to PC-9 (KRAS wild type human lung adenocarcinoma cell line). Nature of the assay: KRAS 3D-Cell Proliferation Assay, PC-9 (CellTiter-Glo 3D, 7 days). The settings on record: PC-9 3D culture, read-out: Prolif PC9 3D ATP IC50. It is filed as cell-based. On the procedure: (§1) Example 503: KRAS 3D-Cell Proliferation Assays. Cellular potencies of compounds are assessed by evaluating inhibition of proliferation in 3D cultures of homozygous mutant KRAS G12D human pancreatic cell lines (AsPC-1 and HPAC) as compared to a KRAS wild type human lung adenocarcinoma cell line (PC-9 and/or H1975). Cells are seeded into 384-well black round-bottom, ultra-low attachment assay plates in 50 uL cell growth medium (RPMI-1640 with 10% fetal bovine serum and 2 mM L-glutamine). After overnight incubation at 37° C. and 5% CO2, compounds solubilized in DMSO are added as dilution series to the wells in a total volume of 150 nL (0.3% DMSO final). The cells are incubated for 7 days at 37° C. and 5% CO2. Cell proliferation is quantitated by addition of 40 uL/well of CellTiter-GloO 3D (Promega), and the well contents are mixed 20× at high speed using liquid handling automation workstation (Bravo with 384-well head) and centrifuged at 1500 rpm for 2 minutes to eliminate bubbles. This reagent in combination with mechanical disruption releases the cellular ATP to promote activity in a luciferase-based enzyme/substrate chemiluminescent detection system. After a 30-minute incubation under ambient conditions with shaking and an additional 10 minutes without shaking, the luminescence is read on a plate reader (e.g. EnVision [PerkinElmer]). The results are normalized to percent inhibition based on the following control samples: DMSO (0% inhibition) and 1 uM staurosporine (100% inhibition). The normalized luminescence results are plotted against compound concentration, and the data are fit to a 4-parameter Hill equation to determine the IC50 values.
On the technique in general: ATP-based viability assays read luminescence as a measure of living cells.

The target of the next assay is KRAS G12D (Homo sapiens (Human), UniProt P01116, G12D). Nature of the assay: KRAS G12D LoEnz Biochemical Assay, BODIPY-GDP Exchange TR-FRET (SOS1-mediated nucleotide exchange). The conditions noted are these: read-out: KRas (G12D) GDP HTRF IC50. Background: In TR-FRET formats the signal depends on donor and acceptor labels being close together.
KRAS G12D, sequence (P01116-2 other isoform, or with tags, fused parts or gaps G12D): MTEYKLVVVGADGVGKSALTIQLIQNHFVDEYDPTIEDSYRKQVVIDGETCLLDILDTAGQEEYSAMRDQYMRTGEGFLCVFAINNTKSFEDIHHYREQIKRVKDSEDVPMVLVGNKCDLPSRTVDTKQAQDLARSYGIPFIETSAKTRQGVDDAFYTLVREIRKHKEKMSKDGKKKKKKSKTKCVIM
The target of assay [3] is T1, KRAS WT. As to the kind of experiment: KRAS WT Biochemical Assay, BODIPY-GDP Exchange TR-FRET (Example 502; 0.06 nM KRAS WT, 15 nM GDP, 300 nM SOS1, 120-minute incubation). The settings on record: read-out: KRas HTRF IC50. The method, boiled down: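 IC50 from a 4-parameter Hill fit of percent inhibition, itself the TR-FRET 520/490 nm ratio scaled between DMSO and a fully inhibiting control. Reaction: 300 nM SOS1 and 300 nM BODIPY-GDP added to preformed 0.06 nM KRAS WT/15 nM GDP/Tb-streptavidin complex; 120 min incubation; pH 7.5 HEPES, MgCl2, DTT.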

Assay [4] concerns HPAC (homozygous mutant KRAS G12D human pancreatic cell line). As to the kind of experiment: KRAS 3D-Cell Proliferation Assay, HPAC (CellTiter-Glo 3D, 7 days). In kind it is cell-based. The settings on record: HPAC 3D culture, read-out: Prolif HPAC 3D ATP IC50. Here is the method:
as §1

The test system of assay [5] is H1975 (KRAS wild type human lung adenocarcinoma cell line). Nature of the assay: KRAS 3D-Cell Proliferation Assay, H1975 (CellTiter-Glo 3D, 7 days). In kind it is cell-based. The settings on record: H1975 3D culture, read-out: Prolif H1975 3D ATP IC50. On the procedure:
as §1

The mark [6] stands for this setting: read-out: KRas(wt) GDP HTRF IC50.

“And” between values parts separate entries of the source, which are not always exact repeats. Identical values can stand only once. Like-named read-outs stand apart in the source and are kept apart here.

Usually IC50 stands for the concentration that inhibits the measured activity by half. Take `Cc1cc(N)nc(-c2nc3c4c(nc(OC[C@]56CCN5CC(F)(F)C6)nc4c2F)N2C[C@H]4CC[C@H](N4)[C@H]2[C@H](C)O3)c1C(F)(F)F` (single isomer, unassigned) [Compound 45]: the IC50 is 69.4 nM and 319 nM on KRAS WT [1] (setting [6]); 20000 nM in assay [2] (Homo sapiens, PC-9, 168 h).

Take `C[C@@H]1Oc2nc(-c3cccc4cccc(Cl)c34)c(F)c3nc(OCC45CCN4CC(F)(F)C5)nc(c23)N2C[C@H]3CC[C@H](N3)[C@@H]12` (single isomer, unassigned) [Compound 21]: the IC50 at KRAS WT [1] (setting [6]) is 3890 nM and 1400 nM; in assay [2] it was 8130 nM.

For the compound `C#Cc1cccc2cc(O)cc(-c3nc4c5c(nc(OC[C@@]67CCCN6C[C@H](F)C7)nc5c3F)N3C[C@H]5CC[C@H](N5)[C@H]3[C@H](C)O4)c12` [Compound 11, 5-ethynyl-4-((5S,5aS,6S,9R)-1-fluoro-12-(((2R,7aS)-2-fluorotetrahydro-1H-pyrrolizin-7a(5H)-yl)methoxy)-5-methyl-5a,6,7,8,9,10-hexahydro-5H-4-oxa-3,10a,11,13,14-pentaaza-6,9-methanonaphtho[1,8-ab]heptalen-2-yl)naphthalen-2-ol], the IC50 at KRAS G12D amounted to 0.06 nM; on KRAS WT [1] (setting [6]) it was 0.38 nM; in assay [2] (Homo sapiens, PC-9, 168 h), 20000 nM.

In the case of `C#Cc1cccc2cc(O)cc(-c3nc4c5c(ncnc5c3F)N3C[C@H]5CC[C@H](N5)[C@H]3[C@H](C)O4)c12` [Compound 54, 5-ethynyl-4-((5S,5aS,6S,9R)-1-fluoro-5-methyl-5a,6,7,8,9,10-hexahydro-5H-4-oxa-3,10a,11,13,14-pentaaza-6,9-methanonaphtho[1,8-ab]heptalen-2-yl)naphthalen-2-ol], the IC50 came to 17.8 nM at KRAS G12D; 1980 nM at KRAS WT [1] (setting [6]); 20000 nM in assay [2] (Homo sapiens, PC-9, 168 h).

Consider `Cc1c(F)c(N)cc(-c2nc3c4c(nc(OC[C@]5(CN6C[C@H]7C[C@@H]6CO7)CC5(F)F)nc4c2F)N2C[C@H]4CC[C@H](N4)[C@H]2[C@H](C)O3)c1C(F)(F)F` [166 b, 5-((5S,5aS,6S,9R)-12-((1-(((1R,4R)-2-Oxa-5-azabicyclo[2.2.1]heptan-5-yl)methyl)-2,2-difluorocyclopropyl)methoxy)-1-fluoro-5-methyl-5a,6,7,8,9,10-hexahydro-5H-4-oxa-3,10a,11,13,14-pentaaza-6,9-methanonaphtho[1,8-ab]heptalen-2-yl)-2-fluoro-3-methyl-4-(trifluoromethyl)aniline], for which the IC50 turned out to be 0.15 nM on KRAS G12D, 5.38 nM at KRAS WT [3], 1.49 nM in assay [4] and 402 nM in assay [5].

With `C[C@@H]1Oc2nc(-c3nc(N)cc4ccccc34)c(F)c3nc(OC[C@@]45CCCN4C[C@H](F)C5)nc(c23)N2C[C@H]3CC[C@H](N3)[C@@H]12` [Compound 41, 1-((5S,5aS,6S,9R)-1-fluoro-12-(((2R,7aS)-2-fluorotetrahydro-1H-pyrrolizin-7a(5H)-yl)methoxy)-5-methyl-5a,6,7,8,9,10-hexahydro-5H-4-oxa-3,10a,11,13,14-pentaaza-6,9-methanonaphtho[1,8-ab]heptalen-2-yl)isoquinolin-3-amine], the IC50 on KRAS G12D amounted to 6.35 nM; on KRAS WT [1] (setting [6]), 296 nM; in assay [2] (Homo sapiens, PC-9, 168 h) it was 20000 nM.

Take `C#Cc1c(F)ccc2cccc(-c3nc4c5c(nc(OCC67CCN6CC(F)(F)C7)nc5c3F)N3C[C@H]5CC[C@H](N5)[C@H]3[C@H](C)O4)c12` (stereo partly drawn) [Compound 22, (5S,5aS,6S,9R)-12-((3,3-difluoro-1-azabicyclo[3.2.0]heptan-5-yl)methoxy)-2-(8-ethynyl-7-fluoronaphthalen-1-yl)-1-fluoro-5-methyl-5a,6,7,8,9,10-hexahydro-5H-4-oxa-3,10a,11,13,14-pentaaza-6,9-methanonaphtho[1,8-ab]heptane]: the IC50 at KRAS WT [1] (read-out: KRas HTRF IC50) amounted to 9.95 nM; in assay [2] it was 7410 nM.

`Cc1c(F)c(N)cc(-c2nc3c4c(nc(OC[C@@]56CCC[C@H]5N(C)CCC6)nc4c2F)N2C[C@H]4CC[C@H](N4)[C@H]2[C@H](C)O3)c1C(F)(F)F` (single isomer, unassigned) [126 (isomer 3)]: the IC50 on KRAS G12D came to 0.09 nM; on KRAS WT [3], 6.31 nM; in assay [4] (Homo sapiens, HPAC, 168 h), 3.28 nM; in assay [5] (Homo sapiens, NCI-H1975, 168 h) it was 1430 nM.

As to `Cc1c(F)c(N)cc(-c2nc3c4c(nc(OCC5CCC6CC(F)(F)CN56)nc4c2F)N2C[C@H]4CC[C@H](N4)[C@H]2[C@H](C)O3)c1C(F)(F)F` (single isomer, unassigned) [153 (isomer 2)], the IC50 at KRAS G12D worked out at 0.32 nM; on KRAS WT [3], 87.6 nM; in assay [4], 13.4 nM; in assay [5] it was 4180 nM.

With `Cc1c(F)c(N)cc(-c2nc3c4c(nc(OCC5C[C@@H]6C[N@@]5CCO6)nc4c2F)N2C[C@H]4CC[C@H](N4)[C@H]2[C@H](C)O3)c1C(F)(F)F` (single isomer, unassigned) [151 (isomer 2)], the IC50 was 0.12 nM on KRAS G12D; 25.5 nM on KRAS WT [3]; 8.04 nM in assay [4] (Homo sapiens, HPAC, 168 h); 1690 nM in assay [5] (Homo sapiens, NCI-H1975, 168 h).

On to `Cc1c(F)c(N)cc(-c2nc3c4c(nc(OCC5CC(F)C6CCCN56)nc4c2F)N2C[C@H]4CC[C@H](N4)[C@H]2[C@H](C)O3)c1C(F)(F)F` (single isomer, unassigned) [Compound 160 (diast. 2)], for which the IC50 turned out to be 0.12 nM at KRAS G12D; 22.5 nM at KRAS WT [3]; 6.97 nM in assay [4] (Homo sapiens, HPAC, 168 h); 755 nM in assay [5] (Homo sapiens, NCI-H1975, 168 h).

Regarding `Cc1c(F)c(N)cc(-c2nc3c4c(nc(OC[C@@]56CCCN5[C@@H](C(F)F)CC6)nc4c2F)N2C[C@H]4CC[C@H](N4)[C@H]2[C@H](C)O3)c1C(F)(F)F` (single isomer, unassigned) [130 (isomer 2)], the IC50 was found to be 0.92 nM on KRAS G12D, 174 nM at KRAS WT [3], 15.8 nM in assay [4] and 2900 nM in assay [5].

As to `Cc1cc(N)c(F)c(-c2nc3c4c(ncnc4c2Cl)N2C[C@H]4CC[C@H](N4)[C@H]2[C@H](C)O3)c1C(F)(F)F` (single isomer, unassigned) [Compound 94], the IC50 on KRAS G12D worked out at 2300 nM; at KRAS WT [3], 200000 nM; in assay [4], 2230 nM; in assay [5], 15200 nM.

`Cc1c(F)c(N)cc(-c2nc3c4c(nc(OC[C@]56CCC[C@H]5N(C)CCC6)nc4c2F)N2C[C@H]4CC[C@H](N4)[C@H]2[C@H](C)O3)c1C(F)(F)F` (single isomer, unassigned) [126 (isomer 4)]: the IC50 at KRAS G12D was found to be 0.37 nM; at KRAS WT [3], 90.3 nM; in assay [4] (Homo sapiens, HPAC, 168 h), 24.9 nM; in assay [5] (Homo sapiens, NCI-H1975, 168 h), 2250 nM.

Take `Cc1c(F)c(N)cc(-c2nc3c4c(nc(OCC56CCCN5CC(F)C6F)nc4c2F)N2C[C@H]4CC[C@H](N4)[C@H]2[C@H](C)O3)c1C(F)(F)F` (single isomer, unassigned) [143 (isomer 2)]: the IC50 at KRAS G12D came to 0.26 nM; at KRAS WT [3] it was 33.5 nM; in assay [4] (Homo sapiens, HPAC, 168 h) it was 3.52 nM; in assay [5] (Homo sapiens, NCI-H1975, 168 h), 1130 nM.

On to `Cc1c(F)c(N)cc(-c2nc3c4c(nc(OC[C@@H]5CCC6C[C@@H](C(=O)N(C)C)CCN65)nc4c2F)N2C[C@H]4CC[C@H](N4)[C@H]2[C@H](C)O3)c1C(F)(F)F` (single isomer, unassigned) [133 (isomer 2)], for which the IC50 on KRAS G12D worked out at 0.15 nM; on KRAS WT [3], 14.4 nM; in assay [4] (Homo sapiens, HPAC, 168 h) it was 22.4 nM; in assay [5] (Homo sapiens, NCI-H1975, 168 h), 1600 nM.

In the case of `Cc1c(F)c(N)cc(-c2nc3c4c(nc(OC[C@H]5CC[C@@H]6CN(C)C(=O)CN56)nc4c2F)N2C[C@H]4CC[C@H](N4)[C@H]2[C@H](C)O3)c1C(F)(F)F` (single isomer, unassigned) [131 (isomer 3)], the IC50 on KRAS G12D was 2.07 nM; on KRAS WT [3] it was 249 nM; in assay [4], 77.4 nM; in assay [5], 8850 nM.
